This is an account of results in patent publication US20190134000A1, “COMPOUNDS TO PROMOTE NORMAL PROCESSING OF APP” (Buck Institute for Research on Aging, priority 2016, published 2019).

Values after ≈ are worked out from the molar mass of the structure shown. “Also recorded” adds a separate entry of the source. Where two headings read alike, the source gives them in different places.

The test system of one data set is sAPPα in SH-SY5Y cells. Briefly: Primary screen, effect on sAPPα in SH-SY5Y cells (AlphaLISA). In kind it is cell-based, human. From the text: (§1) Compound C41 was initially identified by screening a library of compounds in a series of steps. First compounds were screened in a primary screen to determine the effect on sAPPα in SH-SYSY cells (see, e.g., FIG. 4). Compounds that elicited an increase in sAPPα of at least 10% were subjected to a secondary screen in CHO-7W cells for their effect on sAPPα and Aβ (see, e.g., FIG. 5).
(In general: In Alpha technology, singlet oxygen from a donor bead excites a nearby acceptor bead.)

The target of a further data set is α7 (Homo sapiens, UniProt P36544). Briefly: Target binding α7.
The target of the next data set is T1, 5-HT3 (Homo sapiens, UniProt P46098).
T1 sequence (P46098 24-478): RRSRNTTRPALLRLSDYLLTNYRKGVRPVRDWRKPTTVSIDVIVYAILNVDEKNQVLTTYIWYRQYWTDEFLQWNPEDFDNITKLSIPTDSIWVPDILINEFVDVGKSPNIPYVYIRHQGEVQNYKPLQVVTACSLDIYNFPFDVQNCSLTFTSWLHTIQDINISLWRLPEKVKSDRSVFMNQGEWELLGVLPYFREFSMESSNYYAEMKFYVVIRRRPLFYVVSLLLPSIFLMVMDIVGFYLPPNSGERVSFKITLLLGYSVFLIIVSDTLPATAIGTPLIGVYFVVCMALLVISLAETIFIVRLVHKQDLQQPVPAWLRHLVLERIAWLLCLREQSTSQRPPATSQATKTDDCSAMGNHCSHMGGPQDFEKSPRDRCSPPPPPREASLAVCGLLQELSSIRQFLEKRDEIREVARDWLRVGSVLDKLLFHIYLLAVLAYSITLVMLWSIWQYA
Description: Target binding 5-HT3. The conditions noted are these: target binding.

The next data set has as its target APP (Homo sapiens, UniProt P05067). Briefly: Target binding APP.
For data set [1], the system named is sAPPα, Aβ1-42 in CHO-7W cells. Briefly: Secondary screen, sAPPα and Aβ in CHO-7W cells. The class given is cell-based.
Text: as §1

For a further data set, the system named is AD model mouse. Description: In vivo study of C41 and F03 in an AD model mouse. The text has this:
Panel A: Novel object preference; Panel B: Novel location preference; Panel C: sAPPα.
Panel A: sAPPβ; Panel B: the sAPPα/sAPPβ ratio.
Compounds meeting the initial screening criteria were then subjected to in vivo testing.

The nature of the next data set: in vitro. The protocol:
The second batch of C41 was tested for plasma protein binding, ADME-tox screening (microsomal intrinsic clearance), and ADME-tox screening (CYP inhibition screen). PK in rats was determined to determine a dose of non-GLP Pharm-Tox screening. Additionally, acute toxicity in rats (pre-subchronic toxicity) and non-GLP subchronic toxicity was determined.

The next data set has as its target CYP3A4 (Homo sapiens, UniProt P08684). Briefly: CYP inhibition screen CYP3A4. The conditions noted are these: human. In kind it is in vitro ADME.
A further data set deals with CYP2C9 (Homo sapiens, UniProt P11712). Description: CYP inhibition screen CYP2C9. In kind it is in vitro ADME. Particulars: human, read-out: CYP2C9 inhibition.
Another data set has as its target CYP2D6 (Homo sapiens, UniProt P10635). Briefly: CYP inhibition screen CYP2D6. In kind it is in vitro ADME. Particulars: human, read-out: CYP2D6 inhibition.
The target of the next data set is CYP2C19 (Homo sapiens, UniProt P33261). Description: CYP inhibition screen CYP2C19. Particulars: human, read-out: CYP2C19 inhibition. In kind it is in vitro ADME.
In the next data set the target is T2, CYP1A2 (Homo sapiens, UniProt P05177).
T2 sequence (P05177 1-516): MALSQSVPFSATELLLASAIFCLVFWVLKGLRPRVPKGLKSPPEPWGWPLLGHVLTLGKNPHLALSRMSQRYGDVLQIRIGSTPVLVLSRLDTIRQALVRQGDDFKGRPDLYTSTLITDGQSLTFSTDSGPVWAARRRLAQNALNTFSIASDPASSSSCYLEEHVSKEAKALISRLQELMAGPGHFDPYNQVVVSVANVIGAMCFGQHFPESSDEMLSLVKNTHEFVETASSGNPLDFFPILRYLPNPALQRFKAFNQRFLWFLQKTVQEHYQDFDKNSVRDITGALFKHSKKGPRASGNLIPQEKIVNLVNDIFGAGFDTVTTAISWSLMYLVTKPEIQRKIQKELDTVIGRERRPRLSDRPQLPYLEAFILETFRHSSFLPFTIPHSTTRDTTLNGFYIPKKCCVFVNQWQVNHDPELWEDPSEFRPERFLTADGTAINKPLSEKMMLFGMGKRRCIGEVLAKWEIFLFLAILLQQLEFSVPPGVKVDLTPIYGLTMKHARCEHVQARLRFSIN
Description: CYP inhibition screen CYP1A2. The class given is in vitro ADME. The conditions noted are these: human, read-out: CYP1A2 inhibition.

Another data set concerns AD mouse model. Description: Synaptic load, synaptophysin labeling of hippocampus. In kind it is in vivo. The protocol: FIG. 16 illustrates mechanistic confirmation studies for determination of synaptic load.
Mechanistic confirmation studies for determination of synaptic load were performed using antibody-labeling of synaptophysin with a green fluorescent tag. […] The improvements in NLR and NOR may be correlated to the restoration of synaptic load, increases in sAPPα or the sAPPα/sAPPβ ratio; increases in the sAPPα/Aβ1-42 ratio; decreases in the p-tau/tau ratio, and/or decreases in APPneo (c-terminal cleavage).

The conditions of data set [2]: reported; cited from earlier work.
Setting [3] is: dog, microsomes, NADPH-Dependent CLint.
[4] abbreviates: dog, microsomes, NADPH-Free CLint.
Where [5] appears, read: rat, microsomes, NADPH-Dependent CLint.
Where [6] appears, read: rat, microsomes, NADPH-Free CLint.
Setting [7] is: midazolam, read-out: CYP3A4 midazolam inhibition.
The mark [8] stands for this setting: testosterone, read-out: CYP3A4 testosterone inhibition.

Sequence of CYP3A4 (P08684 whole entry): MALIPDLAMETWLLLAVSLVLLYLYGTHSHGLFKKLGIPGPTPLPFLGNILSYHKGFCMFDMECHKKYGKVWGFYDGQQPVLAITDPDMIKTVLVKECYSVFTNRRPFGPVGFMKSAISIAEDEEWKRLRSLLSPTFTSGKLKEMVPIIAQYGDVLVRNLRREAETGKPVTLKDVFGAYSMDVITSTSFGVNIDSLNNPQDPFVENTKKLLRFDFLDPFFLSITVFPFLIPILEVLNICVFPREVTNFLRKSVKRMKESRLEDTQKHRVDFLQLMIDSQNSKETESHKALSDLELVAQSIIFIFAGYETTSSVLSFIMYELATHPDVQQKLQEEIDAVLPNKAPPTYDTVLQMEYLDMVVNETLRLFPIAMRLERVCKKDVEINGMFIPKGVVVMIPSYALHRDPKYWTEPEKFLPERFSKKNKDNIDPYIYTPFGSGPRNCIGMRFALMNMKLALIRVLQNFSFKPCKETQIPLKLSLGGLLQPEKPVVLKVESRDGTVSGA
Sequence of CYP2D6 (P10635 whole entry): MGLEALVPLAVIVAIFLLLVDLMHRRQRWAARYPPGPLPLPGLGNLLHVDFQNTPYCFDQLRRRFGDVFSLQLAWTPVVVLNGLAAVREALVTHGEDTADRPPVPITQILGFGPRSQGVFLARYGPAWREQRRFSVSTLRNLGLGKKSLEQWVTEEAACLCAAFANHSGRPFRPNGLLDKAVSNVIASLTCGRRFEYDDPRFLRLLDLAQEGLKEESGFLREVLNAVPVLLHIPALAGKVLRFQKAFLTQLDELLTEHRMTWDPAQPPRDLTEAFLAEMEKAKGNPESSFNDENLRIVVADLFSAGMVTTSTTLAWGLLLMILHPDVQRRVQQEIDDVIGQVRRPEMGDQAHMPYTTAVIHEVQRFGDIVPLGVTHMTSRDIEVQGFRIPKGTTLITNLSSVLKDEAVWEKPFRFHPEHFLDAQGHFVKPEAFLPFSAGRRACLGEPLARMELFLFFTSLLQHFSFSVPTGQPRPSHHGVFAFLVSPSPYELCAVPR
Sequence of CYP2C9 (P11712 whole entry): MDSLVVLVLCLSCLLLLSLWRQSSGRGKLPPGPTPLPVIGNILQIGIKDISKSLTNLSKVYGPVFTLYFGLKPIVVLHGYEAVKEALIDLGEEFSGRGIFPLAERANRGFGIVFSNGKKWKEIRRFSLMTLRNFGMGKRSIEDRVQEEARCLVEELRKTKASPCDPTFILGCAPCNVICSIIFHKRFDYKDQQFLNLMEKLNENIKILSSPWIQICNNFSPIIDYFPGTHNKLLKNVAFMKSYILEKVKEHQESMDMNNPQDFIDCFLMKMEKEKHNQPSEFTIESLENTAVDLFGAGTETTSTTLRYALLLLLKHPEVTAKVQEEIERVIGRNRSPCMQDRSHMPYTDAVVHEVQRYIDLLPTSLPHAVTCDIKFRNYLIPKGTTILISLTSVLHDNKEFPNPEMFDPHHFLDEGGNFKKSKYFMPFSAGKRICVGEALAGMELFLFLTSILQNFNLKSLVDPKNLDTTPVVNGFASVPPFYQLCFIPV
Sequence of CYP2C19 (P33261 whole entry): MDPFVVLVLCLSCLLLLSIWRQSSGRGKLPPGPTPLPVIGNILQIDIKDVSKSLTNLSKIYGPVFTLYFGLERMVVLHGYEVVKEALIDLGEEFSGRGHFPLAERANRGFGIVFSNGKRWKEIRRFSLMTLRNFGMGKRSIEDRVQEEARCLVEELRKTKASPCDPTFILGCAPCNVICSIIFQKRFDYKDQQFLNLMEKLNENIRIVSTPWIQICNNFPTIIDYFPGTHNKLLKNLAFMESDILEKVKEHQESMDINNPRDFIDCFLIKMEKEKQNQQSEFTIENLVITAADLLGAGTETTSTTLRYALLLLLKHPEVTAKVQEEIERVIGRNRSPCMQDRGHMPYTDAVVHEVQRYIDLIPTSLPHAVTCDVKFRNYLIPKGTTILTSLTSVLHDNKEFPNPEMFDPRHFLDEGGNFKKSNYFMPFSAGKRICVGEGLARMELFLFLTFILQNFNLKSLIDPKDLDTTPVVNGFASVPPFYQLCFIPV
Sequence of α7 (P36544 23-502): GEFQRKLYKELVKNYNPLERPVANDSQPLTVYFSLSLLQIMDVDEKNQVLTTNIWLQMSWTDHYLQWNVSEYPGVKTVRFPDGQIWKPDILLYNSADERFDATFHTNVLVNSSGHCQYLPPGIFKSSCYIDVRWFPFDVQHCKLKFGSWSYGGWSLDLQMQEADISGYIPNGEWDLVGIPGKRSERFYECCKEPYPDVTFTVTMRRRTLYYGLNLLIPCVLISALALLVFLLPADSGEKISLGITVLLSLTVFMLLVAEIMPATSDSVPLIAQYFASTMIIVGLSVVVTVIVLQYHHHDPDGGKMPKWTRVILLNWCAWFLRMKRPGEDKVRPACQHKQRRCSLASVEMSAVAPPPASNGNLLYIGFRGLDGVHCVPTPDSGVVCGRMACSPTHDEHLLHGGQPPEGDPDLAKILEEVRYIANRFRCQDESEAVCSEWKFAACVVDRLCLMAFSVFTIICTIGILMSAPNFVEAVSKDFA
Sequence of APP (P05067 18-770, species assumed): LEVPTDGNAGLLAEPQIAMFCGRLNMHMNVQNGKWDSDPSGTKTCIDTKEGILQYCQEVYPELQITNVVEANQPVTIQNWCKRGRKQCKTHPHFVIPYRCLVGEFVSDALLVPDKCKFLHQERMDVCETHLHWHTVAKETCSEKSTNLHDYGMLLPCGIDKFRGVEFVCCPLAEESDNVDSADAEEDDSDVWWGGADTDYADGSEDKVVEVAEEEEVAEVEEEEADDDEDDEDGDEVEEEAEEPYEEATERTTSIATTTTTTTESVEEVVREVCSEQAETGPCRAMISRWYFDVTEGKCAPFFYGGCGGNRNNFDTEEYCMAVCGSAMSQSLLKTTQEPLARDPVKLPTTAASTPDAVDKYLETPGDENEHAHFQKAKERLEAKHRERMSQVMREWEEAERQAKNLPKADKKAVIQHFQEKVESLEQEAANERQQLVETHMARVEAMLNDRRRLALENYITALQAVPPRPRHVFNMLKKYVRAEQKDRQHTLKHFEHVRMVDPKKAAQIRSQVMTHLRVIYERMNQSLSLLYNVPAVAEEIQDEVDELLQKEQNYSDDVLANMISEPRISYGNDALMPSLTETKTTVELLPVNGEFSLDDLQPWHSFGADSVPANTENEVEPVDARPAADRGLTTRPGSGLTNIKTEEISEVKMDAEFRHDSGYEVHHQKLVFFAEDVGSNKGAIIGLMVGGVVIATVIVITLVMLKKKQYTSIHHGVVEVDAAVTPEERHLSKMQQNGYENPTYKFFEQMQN

As to `CN1C2CC[C@H]1C[C@@H](OC(=O)c1c[nH]c3cc(F)ccc13)C2.Cl` [C41 HCl, (1R,3R,5S)-8-methyl-8-azabicyclo[3.2.1]octan-3-yl 6-fluoro-1H-indole-3-carboxylate hydrochloride], the “effect on sAPPα in SH-SY5Y cells” value in the data set on sAPPα in SH-SY5Y cells (1 μm, 24 hours) is “increase sAPPα similar to C41 (first batch) and to F03”.

For `CN1[C@@H]2CC[C@H]1C[C@@H](OC(=O)c1c[nH]c3ccccc13)C2` [Compound F03, tropisetron, reference compound], the “Target α7” value on α7 amounted to 450 nM. Further, on 5-HT3, the “Target 5-HT3” value is 3 nM. Also, the “Target APP” value on APP fell in the range of 1 to 10 µM. For the same compound, the “Primary Screen (SH-SY5Y) sAPPα” value with sAPPα in SH-SY5Y cells (↑ increase) was “↑>10%”. Further, in [1] (↑ increase), the “Secondary Screen (CHO-7W) sAPPα” value is reported as “↑>10%”. Besides, the “Secondary Screen (CHO-7W) sAppα/Aβ” value in [1] (↑ increase of ratio) is reported as “↑>30%”. Further, the “Secondary Screen (CHO-7W) Aβ1-42” value in [1] (↓ decrease) was “↓>10%”. The “Aβ40/42 ratio in vivo” value in the data set on AD model mouse is listed as “not changed”. In addition, the sAPPα in vivo result in the data set with AD model mouse was “increased significantly”. Also, the “sAPPα/Aβ1-42 ratio in vivo” value in the data set on AD model mouse is listed as “not increased”. Besides, the microsomal CLint (in general, the rate of metabolic loss divided by the concentration) at 1 μM is 43.5 µL/min/mg in “in vitro” (setting [3]); < 9.6 µL/min/mg in the data set “in vitro” (setting [4]); < 9.6 µL/min/mg in the data set “in vitro” (human, microsomes); 367 µL/min/mg in “in vitro” (setting [5]); < 9.6 µL/min/mg in “in vitro” (setting [6]). Further, the half-life (in general, the time in which the quantity being followed falls by half) at 1 μM in “in vitro” (dog, microsomes, NADPH-Dependent T1/2) was 0.885 h; in “in vitro” (dog, microsomes, NADPH-Free T1/2), > 4 h; in “in vitro” (human, microsomes), > 4 h; in “in vitro” (rat, microsomes, NADPH-Dependent T1/2), 0.105 h; in the data set “in vitro” (rat, microsomes, NADPH-Free T1/2) it was > 4 h. Besides, the “NADPH-Free CLint” value in the data set “in vitro” (human, microsomes, 1 μM) is <9.6 µL/min/mg. Moreover, the “NADPH-Free T1/2” value in “in vitro” (human, microsomes, 1 μM) is >4 h. Besides, the inhibition (as a rule, how much of the control response was suppressed) at 10 µM on CYP3A4 (setting [7]) turned out to be 0%; on CYP3A4 (setting [8]), 0.63%; on CYP2C9 (10 μM) it was 15.9%; on CYP2D6 (10 μM), 17.4%; on CYP2C19 (10 μM), 6.4%; on CYP1A2 (10 μM) it was 1%. Also, the inhibition at 30 µM at CYP3A4 (setting [7]) amounted to 6.6%; on CYP3A4 (setting [8]) it was 10.5%; on CYP2C9 (30 μM), 23.3%; at CYP2D6 (30 μM), 38%; on CYP2C19 (30 μM), 0%; on CYP1A2 (30 μM), 1%. Moreover, the “synaptic load / synaptic density in hippocampus” value in the data set with AD mouse model is “restore synaptic density; also recorded: restored synaptic load”. In addition, in [2], the Plasma binding is recorded as 70%. Also, in the data set “Solubility in water”, the concentration in solution (solubility) came to 100 mM (≈ 28.4 mg/mL).

As for `CC(C)NCC(O)COc1cccc2ccccc12` (centres unmarked) [propranolol, reference compound], in the data set “in vitro” (human, plasma), the “Mean Plasma Fraction Bound” value was found to be 81.6% and the fraction unbound (as a rule, free concentration divided by total concentration) amounted to 0.184.

Take `CC(=O)CC(c1ccccc1)c1c(O)c2ccccc2oc1=O` (centres unmarked) [warfarin]: the microsomal CLint at 1 μM in “in vitro” (setting [3]) was < 9.6 µL/min/mg; in the data set “in vitro” (setting [4]) it was < 9.6 µL/min/mg; in “in vitro” (human, microsomes), < 9.6 µL/min/mg; in the data set “in vitro” (setting [5]), < 9.6 µL/min/mg; in “in vitro” (setting [6]) it was < 9.6 µL/min/mg. The same compound gave a recovery in “in vitro” (human) of 99.7%. The “NADPH-Free CLint” value in the data set “in vitro” (human, microsomes, 1 μM) is <9.6 µL/min/mg.
